The test system of data set [1] is amnesia-inducing effect of an electric shock. In words: Mnemic activity: antagonism of the amnesia-inducing effect of an electric shock. Format: in vivo, rat (female Wistar). The following applies: for minimal effective dose: sc, rat, subcutaneous, 5 minutes after the end of the learning session, retention measured 24 hours after the learning session, read-out: Active dose (minimum active dose reestablishing a normal threshold of between 8 to 11 graduations); for mnemic activity relative to the racemate: times more active than the racemate (compound A). From the text:
The principle of the test is as follows:
The reaction of withdrawal of a rat's paw when subjected to an increasing and measured pressure is observed. The pressure at which the withdrawal reaction takes place is referred to as the "reaction threshold". This threshold is expressed by the number of graduations read diectly from the scale of the apparatus used (analgesia-meter UGO BASILE Milan) and thus corresponds to the minimum pressure which, applied to the paw of the animals, causes the paw to be withdrawn (learning session). Three measurements are carried out at intervals of 30 minutes.
When tested 24 hours after the end of the learning session, control animal show a natural retention of the previous test, which corresponds to a threshold of the order of 8 to 11 graduations.
The amnesia-inducing effect is produced by applying a trans-temporal supramaximal electric shock (100 mA, 120 Volts, 0.2 sec.) to the rats 15 minute after the end of the learning session. This amnesia-inducing effect due to the electric shock induces, when measuring the retention 24 hours later, an increase of the avoidance threshold which now corresponds to that of naive animals (which have not undergone a learning session), that is to say a threshold of between 14 and 19 graduations.
For each compound to be tested the minimum active dose (in mg/kg) reestablishing a normal threshold of between 8 to 11 graduations 24 hours after the learning session in animals subjected to electric shock is determined.
The compounds to be tested are administered subcutaneously, as a 10% solution or suspension, to groups of 10 rats (female Wistar rats weighing 150 g) 5 minutes after the end of the learning session. At the same time, a control group of 10 rats is given only a 0.9% aqueous sodium chloride solution.

A short description of data set [2]: Toxicity: LD 50 after intravenous administration in the male mouse. Format: in vivo. The following applies: in vivo; male mouse, intravenous. The text has this: (§1) The following table gives, for compounds A and B, the LD 50 in mg/kg determined on the male mouse and the male rat after intravenous administration
Data set [3] has as its system male mouse. Described as above. Type of data set: in vivo.
Description: as §1

Data set [4] in a line: Toxicity: LD 50 after intravenous administration in the male rat. Conditions: in vivo.
Description: as §1

Consider `CCC(C(N)=O)N1CCCC1=O` (racemic) [compound A, alpha-ethyl-2-oxo-1-pyrrolidineacetamide], for which the minimal effective dose in data set [1] was determined as 1.7 mg/kg.

One may read the LD50 as the dose at which mortality reaches 50%. Higher therefore signals a less toxic substance. On to `CC[C@H](C(N)=O)N1CCCC1=O` [compound B, (R)-alpha-ethyl-2-oxo-1-pyrrolidineacetamide], for which the minimal effective dose in data set [1] is 0.17 mg/kg. The results for the “mnemic activity relative to the racemate” value in data set [1] and in data set [1] (listed as dextrorotatory enantiomer of alpha-ethyl-2-oxo-1-pyrrolidineacetamide) were 10 times and “about 10 times”, respectively. The LD50 was 5600 mg/kg in data set [2] and 5000 mg/kg in data set [4]. Besides, the “toxicity relative to the racemate” value in data set [3] (times lower toxicity than the racemic form, based on LD 50 in mouse and rat) was found to be 3 times. Moreover, in data set [3] (versus racemate (product A), LD 50 mouse and rat, intravenous), the “toxicity relative to the racemate (in words)” value is “three times less toxic”.
